# Experimental data: patent US20230183243A1, “HETEROARYL DERIVATIVES AND PHARMACEUTICAL COMPOSITION COMPRISING SAME AS ACTIVE INGREDIENT” (VORONOI INC., priority 2019, published 2023)
# Legend:
# JNK3 = biological target: T1, JNK3 (Homo sapiens, UniProt P53779); experiment: JNK enzyme activity, Kinase HotSpot service (Reaction Biology Corporation); type: biochemical; conditions: ATP concentration of 10 μM
# T1 construct: purchased DiscoverX Corp. (ScanMAX Kinase panel, commissioned)
# Description: (§1) IC50 values of the compound of Example 7 for the enzymes were measured using the Kinase HotSpot service (Reaction Biology Corporation), and a test was performed under the same conditions at an ATP concentration of 10 μM. The concentration of the compound was measured at a 3-fold concentration gradient from the peak concentration of 10 mM.
# (§2) All the experimental methods were performed as provided in the Kinase HotSpot Customer Protocol (http://www.reactionbiology.com//Kinase_Assay_Protocol).
# JNK2 = biological target: T2, JNK2 (Homo sapiens, UniProt P45984); experiment: as above; type: biochemical; conditions: ATP concentration of 10 μM
# T2 construct: purchased DiscoverX Corp. (ScanMAX Kinase panel, commissioned)
# T2 sequence (P45984 whole entry): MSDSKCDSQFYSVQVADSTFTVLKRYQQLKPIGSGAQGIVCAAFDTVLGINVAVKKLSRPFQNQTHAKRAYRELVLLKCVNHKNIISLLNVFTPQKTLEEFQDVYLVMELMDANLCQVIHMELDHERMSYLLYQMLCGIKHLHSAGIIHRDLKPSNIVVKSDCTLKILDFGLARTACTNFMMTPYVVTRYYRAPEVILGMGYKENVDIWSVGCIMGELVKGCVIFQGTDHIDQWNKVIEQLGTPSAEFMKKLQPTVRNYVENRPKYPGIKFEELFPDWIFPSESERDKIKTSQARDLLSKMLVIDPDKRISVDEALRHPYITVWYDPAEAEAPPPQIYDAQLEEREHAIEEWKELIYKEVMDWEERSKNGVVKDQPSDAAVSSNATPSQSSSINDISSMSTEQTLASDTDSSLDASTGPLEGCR
# Description: as §1, §2
# JNK1 = biological target: T3, JNK1 (Homo sapiens, UniProt P45983); experiment: as above; type: biochemical; conditions: ATP concentration of 10 μM
# T3 construct: purchased DiscoverX Corp. (ScanMAX Kinase panel, commissioned)
# T3 sequence (P45983 whole entry): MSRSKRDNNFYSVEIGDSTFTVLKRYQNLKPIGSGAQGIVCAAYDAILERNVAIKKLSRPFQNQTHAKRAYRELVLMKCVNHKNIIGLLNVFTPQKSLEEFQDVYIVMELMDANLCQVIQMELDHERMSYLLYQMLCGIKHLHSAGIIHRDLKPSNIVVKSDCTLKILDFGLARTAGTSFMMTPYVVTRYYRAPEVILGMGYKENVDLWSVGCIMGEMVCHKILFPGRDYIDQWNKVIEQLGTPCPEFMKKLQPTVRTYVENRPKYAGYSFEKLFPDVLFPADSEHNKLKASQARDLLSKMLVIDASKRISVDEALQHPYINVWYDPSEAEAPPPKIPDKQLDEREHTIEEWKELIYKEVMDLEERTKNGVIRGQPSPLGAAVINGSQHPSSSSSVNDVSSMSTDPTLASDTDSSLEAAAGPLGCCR
# Description: as §1, §2
# HCT116 = experiment: Cell proliferation inhibition, carcinomas other than TNBC; type: cell-based; conditions: Homo sapiens, HCT-116
# Description: (§3) To check an ability to inhibit the growth of (MDA-MB-231) cells in two triple-negative breast cancer cell lines, a test was performed, as follows. Cells were seeded in 180 μL of a culture broth at a density of 2,000 to 3,000 cells/well in a white clear bottom 96-well plate (Corning) according to the growth ability of each cell, and then cultured for 24 hours under conditions of 5% CO2 and 37° C. Thereafter, the compound was prepared by diluting a 10 mM stock solution three-fold with 100% DMSO at a total of 12 concentrations so that a peak concentration of the compound was in a range of 10 mM to 0.05 μM, and the diluted compound was then diluted in each cell culture medium so that a final concentration of the compound was in a range of 100 μM to 0.5 nM. 20 μL of a diluted solution diluted with a medium was added to the cell solution in which cells were seeded in the 96-well plate on the previous day so that a final concentration of the diluted solution was in a range of 10 μM to 0.05 nM. Each of the cells was cultured for 5 days. To check cell viability, a mixture provided in a CellTiter-Glo® Luminescent Cell Viability Assay Kit (Promega) was added to each of the cultured cell media, and cultured for another 10 minutes under a condition of 37° C. Then, a degree of luminescence (fluorescence) was measured. A degree of inhibition of the cell growth according to the treatment concentration of each of the compounds was calculated based on the fluorescence of the solvent control cells which were not treated with the compound. In this case, the concentration of each of the compounds inhibiting 50% of the cell growth was determined to be a GI50 (nM) value, and calculated using Prism (Version 7.01; GraphPad) software.
# (§4) Next, the activities of the Example compounds against various types of carcinomas other than the TNBC were evaluated in a similar manner as described above. In the following table, the following active value range (GI50 (nM)) was used to evaluate cell proliferation inhibitory activity.
# A549 = experiment: as above; type: cell-based; conditions: Homo sapiens
# Description: as §3, §4
# BxPC3 = experiment: as above; type: cell-based; conditions: Homo sapiens, BXPC-3
# Description: as §3, §4
# DU145 = experiment: as above; type: cell-based; conditions: Homo sapiens, DU-145
# Description: as §3, §4
# T1 sequence (P53779 whole entry): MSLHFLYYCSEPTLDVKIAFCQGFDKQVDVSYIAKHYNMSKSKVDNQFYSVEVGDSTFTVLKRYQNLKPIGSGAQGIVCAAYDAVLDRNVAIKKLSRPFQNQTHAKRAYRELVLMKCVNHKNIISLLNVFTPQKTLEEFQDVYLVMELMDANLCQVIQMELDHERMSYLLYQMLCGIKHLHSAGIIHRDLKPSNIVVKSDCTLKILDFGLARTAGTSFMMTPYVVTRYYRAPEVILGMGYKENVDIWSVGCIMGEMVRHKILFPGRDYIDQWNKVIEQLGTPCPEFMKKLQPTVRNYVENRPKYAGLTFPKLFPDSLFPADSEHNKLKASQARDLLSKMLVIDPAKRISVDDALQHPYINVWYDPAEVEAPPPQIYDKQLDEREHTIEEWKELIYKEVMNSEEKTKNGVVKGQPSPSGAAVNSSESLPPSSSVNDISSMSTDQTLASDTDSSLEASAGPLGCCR
IC50 (JNK3),IC50 (JNK2),IC50 (JNK1),GI50 (HCT116),GI50 (A549),GI50 (BxPC3),GI50 (DU145),SMILES
< 100 nM,< 100 nM,< 100 nM,–,–,–,–,"COc1cc(-c2ccnn2C)ccc1Nc1nc(NC2CCCCC2)c2c(C#N)c[nH]c2n1 [Example 7, 4-(cyclohexylamino)-2-((2-methoxy-4-(1-methyl-1H-pyrazol-5-yl)phenyl)amino)-7H-pyrrolo[2,3-d] pyrimidine-5-carbonitrile]"
–,–,–,< 100 nM,< 100 nM,< 100 nM,< 100 nM,"COc1cc(N2CCCC2=O)ccc1Nc1cc(NC2CCCCC2)c2c(C#N)c[nH]c2n1 [Example 64, 4-(cyclohexylamino)-6-((2-methoxy-4-(2-oxopyrrolidin-1-yl)phenyl)amino)-1H-pyrrolo[2,3-b] pyridine-3-carbonitrile]"
